Experimental data from patent US20020111274A1, “1-alkyl-3-[1-(substituted phenyl) benzotriazol-6-yl] uracils” (BASF Aktiengesellschaft, priority 2000, published 2002).

Legend:
Parameters in all cases: scale not given here
AMBEL Ragweed, Common [1] = assay: Postemergence herbicidal evaluation, AMBEL; type: in vivo, Ambrosia artemisifolia, L.; conditions: postemergence spray, rated about two-three weeks after treatment
Method in brief: (§1)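 For this test, compound in an 80/20 acetone/water vehicle with 1.0% seed oil was sprayed over two-week-old seedlings at about 0.006 to 0.400 kg per hectare. Injury was assessed visually two to three weeks on.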

[2] = test system: IPOHE Morningglory, Ivyleaf; assay: Postemergence herbicidal evaluation, IPOHE; type: in vivo, Ipomoea hederacea, (L.) Jacq.; conditions: postemergence spray, rated about two-three weeks after treatment
Method in brief: as §1

ZEAMX Corn, Field = assay: Postemergence herbicidal evaluation, ZEAMX; type: in vivo, Zea mays, L. (Sammel-Bezeichnung); conditions: postemergence spray, rated about two-three weeks after treatment
Method in brief: as §1

AMBEL Ragweed, Common [3] = assay: Preemergence herbicidal evaluation, AMBEL; type: in vivo, Ambrosia artemisifolia, L.; conditions: preemergence
Method in brief: (§2)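 Visual ratings were taken four to five weeks after application. Before that, cups sown with seed in potting soil received a spray of compound dissolved in aqueous acetone, equivalent to about 0.013 to 0.800 kg/ha, and stood on greenhouse benches under conventional care.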

GALAP Galium = assay: Preemergence herbicidal evaluation, GALAP; type: in vivo, Galium aparine; conditions: preemergence
Method in brief: as §2

Cc1ccc(O)c(-n2nnc3cc(F)c(-n4c(=O)cc(C(F)(F)F)n(C)c4=O)cc32)c1 [Example 31, 3-[5-Fluoro-1-(2-Hydroxy-5-Methylphenyl)-1H-1,2,3-Benzotriazol-6-yl]-1-Methyl-6-(Trifluoromethyl)-2,4(1H,3H)-(Pyrimidinedione)]
Postemergence herbicidal rating AMBEL (AMBEL Ragweed, Common [1]; 0.008 kg/ha): 0.0
Postemergence herbicidal rating AMBEL (AMBEL Ragweed, Common [1]; 0.016 kg/ha): 0.0
Postemergence herbicidal rating AMBEL (AMBEL Ragweed, Common [1]; 0.032 kg/ha): 0.0
Postemergence herbicidal rating AMBEL (AMBEL Ragweed, Common [1]; 0.062 kg/ha): 3.0
Postemergence herbicidal rating IPOHE ([2]; 0.008 kg/ha): 1.0
Postemergence herbicidal rating IPOHE ([2]; 0.016 kg/ha): 2.0
Postemergence herbicidal rating IPOHE ([2]; 0.032 kg/ha): 4.0
Postemergence herbicidal rating IPOHE ([2]; 0.062 kg/ha): 4.0
Postemergence herbicidal rating ZEAMX (ZEAMX Corn, Field; 0.008 kg/ha): 3.5
Postemergence herbicidal rating ZEAMX (ZEAMX Corn, Field; 0.016 kg/ha): 3.5
Postemergence herbicidal rating ZEAMX (ZEAMX Corn, Field; 0.032 kg/ha): 4.5
Postemergence herbicidal rating ZEAMX (ZEAMX Corn, Field; 0.062 kg/ha): 4.5
AMBEL herbicidal rating (AMBEL Ragweed, Common [3]; rate 0.008 kg/ha): 0.0
AMBEL herbicidal rating (AMBEL Ragweed, Common [3]; rate 0.016 kg/ha): 0.0
AMBEL herbicidal rating (AMBEL Ragweed, Common [3]; rate 0.032 kg/ha): 0.0
AMBEL herbicidal rating (AMBEL Ragweed, Common [3]; rate 0.062 kg/ha): 0.0
AMBEL herbicidal rating (AMBEL Ragweed, Common [3]; rate 0.125 kg/ha): 0.0
GALAP herbicidal rating (GALAP Galium; rate 0.008 kg/ha): 0.0
GALAP herbicidal rating (GALAP Galium; rate 0.016 kg/ha): 0.0
GALAP herbicidal rating (GALAP Galium; rate 0.032 kg/ha): 0.0
GALAP herbicidal rating (GALAP Galium; rate 0.062 kg/ha): 0.0
GALAP herbicidal rating (GALAP Galium; rate 0.125 kg/ha): 0.0
